Assay results reported in patent US20050170431A1, “PYK2 crystal structure and uses” (Plexxikon, Inc., priority 2003, published 2005).

Target: T1, Pyk2 kinase domain residues 419 to 691 (Homo sapiens, UniProt Q14289)
T1 construct: PYK2 kinase domain I420-M691 (not including first 21 aa in); made in house; host or cells: E. coli BL21 (DE3) pLysS
Experiment: PYK2 kinase activity assay in AlphaScreen, inhibition by ATP analogs
Assay type: biochemical
Conditions: Pyk2 at 8 ng/well and ATP at 10 uM; read-out: affinity with Pyk2
Procedure: As an exemplary kinase assay, the kinase activity of PYK2 was measured in AlphaScreening (Packard BioScience). The kinase buffer (HMNB) contains HEPES 50 mM at pH7.2, Mg/Mn 5 mM each, NP-40 0.1%, and BSA at final 50 ug/ml. AlphaScreening is conducted as described by the manufacturer. In brief, the kinase reaction is performed in 384-well plate in 25 ul volume. The substrate is biotin-(E4Y)3 at final concentration of 1 nM. The final concentration of ATP is 10 uM. For compound testing the final DMSO concentration is 1%. The reaction is incubated in 31° C. for 1 hour.
The Pyk2 kinase domain residues 419 to 691 is an active kinase in AlphaScreen. […] Inhibition by ATP analogs was tested with Pyk2 at 8 ng/well and ATP at 10 uM. […] Adenosine and AMP-PCP have little effect on PYK2 in the concentration tested.

T1 sequence (Q14289 420-691): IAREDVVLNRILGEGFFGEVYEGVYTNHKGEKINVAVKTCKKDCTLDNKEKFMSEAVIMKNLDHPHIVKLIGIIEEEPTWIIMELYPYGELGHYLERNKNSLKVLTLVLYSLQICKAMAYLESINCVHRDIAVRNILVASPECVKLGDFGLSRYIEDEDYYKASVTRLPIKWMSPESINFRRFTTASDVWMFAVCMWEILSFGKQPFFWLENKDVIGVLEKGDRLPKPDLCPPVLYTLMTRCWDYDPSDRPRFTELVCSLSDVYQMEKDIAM

Row | Compound | IC50 [µM]
1 | Nc1ncnc2c1ncn2[C@@H]1O[C@H](COP(=O)(O)OP(=O)(O)OP(O)(O)=S)[C@@H](O)[C@H]1O [ATP-g-S] | 14
2 | Nc1ncnc2c1ncn2[C@@H]1O[C@H](COP(=O)(O)OP(=O)(O)O)[C@@H](O)[C@H]1O [ADT, ADP] | 14
